Data taken from patent US8575089B2, “Composition for preventing or treating inflammation” (University-Industry Cooperation Group of Kyung Hee, priority 2009, dated 2013).
Where no end group is shown, it is not given here.

Experiments:
[1] = test system: CD4+ T cell isolated from peripheral blood; assay: IL-6 and IL-10 expression (ELISA) in CD4+ T cells treated with SP; type: cell-based, C57b1/6 mice; details: CD4+ T cell in T-cell activation media; SP as Example 1-(1); 4.5, 10, 24 hours; FIG. 2
Description: [The procedure below names another cell line; the source says it served here with some conditions changed.] (§1) Peripheral blood was collected from C57b1/6 mice (8 weeks, sex; male, n=5, Average Weight; 20 g), diluted doubly with PBS, carefully placed on Ficoll in a tube, and then centrifuged at 2200 rpm for 20 minutes. By centrifuging, from the bottom, an erythrocyte layer, a ficoll layer, a mononuclear cell layer, and a plasma layer were obtained in order. The mononuclear cell layer and plasma layer were isolated, excluding the erythrocyte layer and ficoll layer, and then washed one time with PBS. Then, the number of cells was counted; the cells with a concentration of 1×10^5/0.2 ml were seeded onto T-cell activation media (lymphocyte activation media; RPMI, 10% FBS, 100 μM 2-mercaptoetanol, 20 μg/ml ConA); then the cells were cultured at an incubator of 37° C.; and then culture supernatant was taken at 4.5 hours, 10 hours, and 24 hours. For SP-treated group, 10 nmole/kg of SP dissolved in a physiological saline was treated to T-cell activation media. […] After 30 minutes, 100 μl of stop codon was treated to stop the reaction; the optical density was measured at 450 nm; the amounts of cytokines were converted based on a protein conversion formula by a standard sample; and then the results were shown in FIG. 1. […]

[2] = test system: CD11b+ macrophage isolated from peripheral blood; assay: IL-6 and IL-10 expression (ELISA) in CD11b+ macrophages treated with SP; type: cell-based, C57b1/6 mice; details: CD11b+ macrophage in macrophage activation media; SP as Example 1-(1); 4.5, 10, 24 hours; FIG. 3
Description: [The procedure below names another cell line; the source says it served here with some conditions changed.] as §1

[3] = test system: inflammatory cells in blood; assay: Radiation-irradiating model: CBC of inflammatory cells in blood; type: in vivo, C57b1/6 mice; details: mice, 8 Gy, 5 nmole/kg SP i.v. one day before and immediately after irradiation, 4.5 hours after irradiation, vs group without SP
Description: 5 nmole/kg of SP dissolved in a physiological saline was injected to a tail vein of C57b1/6 mice (8 weeks, sex; male, n=4, Average weight; 20 g) one day before irradiation and immediately after irradiation. The irradiation was performed at 8 Gy radiation in a Gamma lay radiation irradiator (^137Cs, Atomic Energy of Canada, Mississauga, Canada). The mice were sacrificed at 4.5 hours and one day after irradiation, and then the blood was collected. The part of the blood was used for analyzing CBC (Complete Blood Count) and the remaining blood was used to isolate serum and then analyze cytokines
200 μl of mouse's blood was taken at 4.5 hours and one day after 8 Gy radiation; it was added to a vial including a small amount of EDTA and then analyzed for CBC. […] It was confirmed that SP has an effect of inhibiting an increase of inflammatory cells caused by irradiation.

[4] = Streptozotocin-induced Type I diabetes: blood glucose level and weight; type: in vivo, ICR mouse; details: for blood glucose level: FIG. 13
Description: Specifically, 5 nmole/kg of SP dissolved in a physiological saline was injected to a tail vein of ICR mouse (8 weeks, sex; male, n=10, Average Weight: 30 g), and then STZ (Sigma, USA) was intraabdominally injected. Streptozotocin was daily injected intraabdominally for two days, and SP was intravenously injected at the same concentration for five days. Only streptozotocin was injected for the control; after one week, blood glucose level was checked to confirm induction of diabetes; then SP was intravenously injected for five days from seven days after STZ injection.
Blood glucose level and weight were investigated. One drop of blood was taken from a tail vein of mouse by one time per 2-3 days, and a blood glucose level was measured by using a glucometer (Roche, Switzerland) and a weight was measured.

Substance-P (RPKPQQFFGLM; not fully specified; ends and bridges not checked; UniProt P20366 58-68, looked up)
expression level of IL-6 in culture supernatant [1]: no difference
expression of IL-10 in culture supernatant [1]: increased
expression level of IL-6 in culture supernatant [2]: no difference
expression of IL-10 in culture supernatant [2]: increased
leukocyte (White Blood Cell) in blood ([3]; FIG. 7A): decreased at least two times
mononuclear cell in blood ([3]; FIG. 7B): decreased at least two times
neutrophilic leukocyte in blood ([3]; FIG. 7C): decreased at least two times
decrease of eosinocyte in blood ([3]; FIG. 7D): 30-40%
blood glucose level ([4]; STZ/SP-injected group: 5 nmole/kg SP i.v. for five days at the same time as STZ): maintained in normal state
weight ([4]; STZ/SP-injected group: 5 nmole/kg SP i.v. for five days at the same time as STZ, FIG. 14): maintained in normal state
blood glucose level ([4]; STZ/after SP-injected group: SP i.v. for five days from seven days after STZ, after inducing diabetes): decreased in the short run
